Measurements: patent US20050075375A1 (priority 2003, published 2005)
Where two headings read alike, the source gives them in different places.

Test system: monocistronic NK5.1 HCV replicon in Huh7 cells
Assay: HCV replicon assay, monocistronic replicon cell line
Type: cell-based, hepatitis C virus
Conditions: Hepatitis C virus, read-out: Mono EC50 Median
Method in brief: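 EC50 derives from the HCV RNA/GAPDH RNA ratio by one-step TaqMan RT-PCR, relative to DMSO-only wells. Compounds (six half-log concentrations, 0.6% DMSO) were incubated 3 days at 37 °C with NK5.1 monocistronic replicon Huh7 cells plated a day earlier.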

[1] = Huh-7, 72 h, Table 1, monocistronic replicon in Huh7 cells, 3 days incubation, HCV RNA/GAPDH RNA by TaqMan RT-PCR
[2] = Huh-7, monocistronic NK5.1 HCV replicon in Huh7 cells, median value

Q: How did the EC50 [1] turn out when `CN(C)c1ccc(-c2nc(-c3ncccc3-c3ccccc3)no2)c(O)c1` [Compound 231, 5-Dimethylamino-2-[3-(3-phenyl-pyridin-2-yl)-[1,2,4]oxadiazol-5-yl]-phenol] was run?
A: 2.4 µM

Q: And the EC50 [2]?
A: 2.4 µM

Q: For `Cc1ccc(O)c(-c2nc(-c3ncccc3-c3ccccc3)no2)c1` [Compound 232, 4-Methyl-2-[3-(3-phenyl-pyridin-2-yl)-[1,2,4]oxadiazol-5-yl]-phenol], which EC50 [1] is on record?
A: > 32 µM

Q: What about the EC50 [2] of the same molecule?
A: > 32 µM

Q: How did the EC50 [1] turn out when `COc1cc(O)c(-c2nc(-c3ncccc3-c3ccccc3)no2)c(OC)c1` [Compound 233, 3,5-Dimethoxy-2-[3-(3-phenyl-pyridin-2-yl)-[1 ,2,4]oxadiazol-5-yl]-phenol] was run?
A: 2.1 µM

Q: And the EC50 [2]?
A: 2.1 µM

Q: Which EC50 [1] does the source give for `CCOc1ccc(-c2nc(-c3ncccc3-c3ccccc3)no2)c(O)c1` [Compound 234, 5-Ethoxy-2-[3-(3-phenyl-pyridin-2-yl)-[1,2,4]oxadiazol-5-yl]-phenol] here?
A: > 19 µM

Q: And the EC50 [2]?
A: > 19 µM

Q: With `COc1ccc(-c2nc(-c3ncccc3-c3ccccc3)no2)c(O)c1` [Compound 235, 5-Methoxy-2-[3-(3-phenyl-pyridin-2-yl)-[1,2,4]oxadiazol-5-yl]-phenol] as the molecule, how does the EC50 [1] read?
A: 2.3 µM

Q: What about the EC50 [2] of the same molecule?
A: 2.3 µM

Q: What does the source list for `Oc1ccc(O)c(-c2nc(-c3ncccc3-c3ccccc3)no2)c1` [Compound 236, 2-[3-(3-Phenyl-pyridin-2-yl)-[1,2,4]oxadiazol-5-yl]-benzene-1,4-diol]?
A: EC50 [1]: 2.2 µM; EC50 [2]: 2.2 µM

Q: `COc1cccc(-c2nc(-c3ccc(NC(=O)OC(C)(C)C)cn3)no2)c1O` [Compound 237, {6-[5-(2-Hydroxy-3-methoxy-phenyl)-[1,2,4]oxadiazol-3-yl]-pyridin-3-yl}-carbamic acid tert-butyl ester] was tested. Which EC50 [1] did it give?
A: > 32 µM

Q: And the EC50 [2]?
A: > 32 µM

Q: Which results are given for `COc1ccc(-c2nc(-c3ccc(NC(=O)OC(C)(C)C)cn3)no2)c(O)c1` [Compound 238, {6-[5-(2-Hydroxy-4-methoxy-phenyl)-[1,2,4]oxadiazol-3-yl]-pyridin-3-yl}-carbamic acid tert-butyl ester]?
A: EC50 [1]: 1.9 µM; EC50 [2]: 1.9 µM

Q: What does the source list for `COc1ccc(O)c(-c2nc(-c3ccc(NC(=O)OC(C)(C)C)cn3)no2)c1` [Compound 239, {6-[5-(2-Hydroxy-5-methoxy-phenyl)-[1,2,4]oxadiazol-3-yl]-pyridin-3-yl}-carbamic acid tert-butyl ester]?
A: EC50 [1]: 2.1 µM; EC50 [2]: 2.1 µM

Q: `COc1cc(O)c(-c2nc(-c3ncccc3C)no2)c(OC)c1` [Compound 240, 3,5-Dimethoxy-2-[3-(3-methyl-pyridin-2-yl)-[1,2,4]oxadiazol-5-yl]-phenol] was tested. Which EC50 [1] did it give?
A: 0.7 µM

Q: And the EC50 [2]?
A: 0.7 µM

Q: With `COc1cccc(O)c1-c1nc(-c2ncccc2C)no1` [Compound 241, 3-Methoxy-2-[3-(3-methyl-pyridin-2-yl)-[1,2,4]oxadiazol-5-yl]-phenol] as the molecule, how does the EC50 [1] read?
A: > 10 µM

Q: What about the EC50 [2] of the same molecule?
A: > 10 µM

Q: With `COc1cc(Br)cc(-c2nc(-c3ncccc3C)no2)c1O` [Compound 242, 4-Bromo-2-methoxy-6-[3-(3-methyl-pyridin-2-yl)-[1,2,4]oxadiazol-5-yl]-phenol] as the molecule, how does the EC50 [1] read?
A: 8.3 µM

Q: What about the EC50 [2] of the same molecule?
A: 8.3 µM

Q: How did the EC50 [1] turn out when `CCOc1ccc(-c2nc(-c3ncccc3C)no2)c(O)c1` [Compound 243, 5-Ethoxy-2-[3-(3-methyl-pyridin-2-yl)-[1,2,4]oxadiazol-5-yl]-phenol] was run?
A: 2.2 µM

Q: What about the EC50 [2] of the same molecule?
A: 2.2 µM

Q: Which EC50 [1] does the source give for `CC(C)(C)OC(=O)Nc1ccc(-c2noc(-c3cc(Br)ccc3O)n2)nc1` [Compound 244, {6-[5-(5-Bromo-2-hydroxy-phenyl)-[1,2,4]oxadiazol-3-yl]-pyridin-3-yl}-carbamic acid tert-butyl ester] here?
A: 7.3 µM

Q: And the EC50 [2]?
A: 7.3 µM

Q: What does the source list for `Cc1ccc(O)c(-c2nc(-c3ccc(NC(=O)OC(C)(C)C)cn3)no2)c1` [Compound 245, {6-[5-(2-Hydroxy-5-methyl-phenyl)-[1,2,4]oxadiazol-3-yl]-pyridin-3-yl}-carbamic acid tert-butyl ester]?
A: EC50 [1]: > 32 µM; EC50 [2]: > 32 µM

Q: With `COc1cccnc1-c1noc(-c2cccc(OC)c2O)n1` [Compound 246, 2-Methoxy-6-[3-(3-methoxy-pyridin-2-yl)-[1,2,4]oxadiazol-5-yl]-phenol] as the molecule, how does the EC50 [1] read?
A: 19 µM

Q: And the EC50 [2]?
A: 19 µM

Q: Which EC50 [1] does the source give for `COc1ccc(-c2nc(-c3ncccc3OC)no2)c(O)c1` [Compound 247, 5-Methoxy-2-[3-(3-methoxy-pyridin-2-yl)-[1,2,4]oxadiazol-5-yl]-phenol] here?
A: 4.1 µM

Q: And the EC50 [2]?
A: 4.1 µM

Q: `COc1ccc(O)c(-c2nc(-c3ncccc3OC)no2)c1` [Compound 248, 4-Methoxy-2-[3-(3-methoxy-pyridin-2-yl)-[1,2,4]oxadiazol-5-yl]-phenol] was tested. Which EC50 [1] did it give?
A: 13 µM

Q: And the EC50 [2]?
A: 13 µM

Q: Which EC50 [1] does the source give for `COc1cccnc1-c1noc(-c2cc(Br)ccc2O)n1` [Compound 249, 4-Bromo-2-[3-(3-methoxy-pyridin-2-yl)-[1,2,4]oxadiazol-5-yl]-phenol] here?
A: 0.76 µM

Q: What about the EC50 [2] of the same molecule?
A: 0.76 µM

Q: `COc1cccnc1-c1noc(-c2cc(C)ccc2O)n1` [Compound 250, 2-[3-(3-Methoxy-pyridin-2-yl)-[1,2,4]oxadiazol-5-yl]-4-methyl-phenol] was tested. Which EC50 [1] did it give?
A: 2 µM

Q: What about the EC50 [2] of the same molecule?
A: 2 µM

Q: Which EC50 [2] does the source give for `COc1cccc(-c2nc(-c3ccc(N)cn3)no2)c1O` [Compound 251, 2-[3-(5-Amino-pyridin-2-yl)-[1,2,4]oxadiazol-5-yl]-6-methoxy-phenol] here?
A: > 32 µM

Q: `COc1ccc(O)c(-c2nc(-c3ccc(N)cn3)no2)c1` [Compound 252, 2-[3-(5-Amino-pyridin-2-yl)-[1,2,4]oxadiazol-5-yl]-4-methoxy-phenol] was tested. Which EC50 [2] did it give?
A: 9.2 µM

Q: With `COc1ccc(-c2nc(-c3ccc(N)cn3)no2)c(O)c1` [Compound 253] as the molecule, how does the EC50 [2] read?
A: > 32 µM

Q: Which EC50 [2] does the source give for `Nc1ccc(-c2noc(-c3cc(Br)ccc3O)n2)nc1` [Compound 254, 2-[3-(5-Amino-pyridin-2-yl)-[1,2,4]oxadiazol-5-yl]-4-bromo-phenol] here?
A: 32 µM

Q: How did the EC50 [2] turn out when `Cc1ccc(O)c(-c2nc(-c3ccc(N)cn3)no2)c1` [Compound 255, 2-[3-(5-Amino-pyridin-2-yl)-[1,2,4]oxadiazol-5-yl]-4-methyl-phenol] was run?
A: 24 µM

Q: `Oc1ccc2ccccc2c1-c1nc(-c2ncccc2Br)no1` [Compound 256, 1-[3-(3-Bromo-pyridin-2-yl)-[1,2,4]oxadiazol-5-yl]-naphthalen-2-ol] was tested. Which EC50 [2] did it give?
A: 2.1 µM

Q: For `COc1cccc(-c2nc(-c3ncccc3Br)no2)c1O` [Compound 257, 2-[3-(3-Bromo-pyridin-2-yl)-[1,2,4]oxadiazol-5-yl]-6-methoxy-phenol], which EC50 [2] is on record?
A: > 32 µM

Q: With `COc1ccc(O)c(-c2nc(-c3ncccc3Br)no2)c1` [Compound 258, 2-[3-(3-Bromo-pyridin-2-yl)-[1,2,4]oxadiazol-5-yl]-4-methoxy-phenol] as the molecule, how does the EC50 [2] read?
A: > 10 µM

Q: How did the EC50 [2] turn out when `COc1ccc(-c2nc(-c3ncccc3Br)no2)c(O)c1` [Compound 259, 2-[3-(3-Bromo-pyridin-2-yl)-[1,2,4]oxadiazol-5-yl]-5-methoxy-phenol] was run?
A: 2.5 µM

Q: `COc1cccc(-c2nc(-c3ccc(NC(C)=O)cn3)no2)c1O` [Compound 260, N-{6-[5-(2-Hydroxy-3-methoxy-phenyl)-[1,2,4]oxadiazol-3-yl]-pyridin-3-yl}-acetamide] was tested. Which EC50 [2] did it give?
A: 44.3 µM

Q: Which EC50 [2] does the source give for `COc1ccc(-c2nc(-c3ccc(NC(C)=O)cn3)no2)c(O)c1` [Compound 261, N-{6-[5-(2-Hydroxy-4-methoxy-phenyl)-[1,2,4]oxadiazol-3-yl]-pyridin-3-yl}-acetamide] here?
A: 45.3 µM

Q: `COc1ccc(O)c(-c2nc(-c3ccc(NC(C)=O)cn3)no2)c1` [Compound 262, N-{6-[5-(2-Hydroxy-5-methoxy-phenyl)-[1,2,4]oxadiazol-3-yl]-pyridin-3-yl}-acetamide] was tested. Which EC50 [2] did it give?
A: 19.2 µM

Q: With `CC(=O)Nc1ccc(-c2noc(-c3cc(Br)ccc3O)n2)nc1` [Compound 263, N-{6-[5-(5-Bromo-2-hydroxy-phenyl)-[1,2,4]oxadiazol-3-yl]-pyridin-3-yl}-acetamide] as the molecule, how does the EC50 [2] read?
A: > 19 µM

Q: `CC(=O)Nc1ccc(-c2noc(-c3cc(C)ccc3O)n2)nc1` [Compound 264, N-{6-[5-(2-Hydroxy-5-methyl-phenyl)-[1,2,4]oxadiazol-3-yl]-pyridin-3-yl}-acetamide] was tested. Which EC50 [2] did it give?
A: > 19 µM

Q: `COc1ccc(-c2nc(-c3ccc(C(F)(F)F)cn3)no2)c(O)c1OC` [Compound 265, 2,3-Dimethoxy-6-[3-(5-trifluoromethyl-pyridin-2-yl)-[1,2,4]oxadiazol-5-yl]-phenol] was tested. Which EC50 [2] did it give?
A: 28.5 µM

Q: With `Cc1cccnc1-c1noc(-c2cc(O)ccc2OCc2ccccc2)n1` [Compound 267, 4-Benzyloxy-3-[3-(3-methyl-pyridin-2-yl)-[1,2,4]oxadiazol-5-yl]-phenol] as the molecule, how does the EC50 [2] read?
A: 15.9 µM

Q: For `CCOc1cccc(-c2nc(-c3ncccc3C)no2)c1O` [Compound 268, 2-Ethoxy-6-[3-(3-methyl-pyridin-2-yl)-[1,2,4]oxadiazol-5-yl]-phenol], which EC50 [2] is on record?
A: 28.7 µM

Q: How did the EC50 [2] turn out when `CCOc1cccc(-c2nc(-c3ccc(C(F)(F)F)cn3)no2)c1O` [Compound 269, 2-Ethoxy-6-[3-(5-trifluoromethyl-pyridin-2-yl)-[1,2,4]oxadiazol-5-yl]-phenol] was run?
A: 35.9 µM

Q: With `Cc1cccnc1-c1noc(-c2cc(N)ccc2O)n1` [Compound 270, 4-Amino-2-[3-(3-methyl-pyridin-2-yl)-[1,2,4]oxadiazol-5-yl]-phenol] as the molecule, how does the EC50 [2] read?
A: 27.7 µM

Q: Which EC50 [2] does the source give for `CCOc1ccc(O)c(-c2nc(-c3ncccc3C)no2)c1` [Compound 271, 4-Ethoxy-2-[3-(3-methyl-pyridin-2-yl)-[1,2,4]oxadiazol-5-yl]-phenol] here?
A: 0.61 µM

Q: How did the EC50 [2] turn out when `CCCOc1ccc(O)c(-c2nc(-c3ncccc3C)no2)c1` [Compound 272, 2-[3-(3-Methyl-pyridin-2-yl)-[1,2,4]oxadiazol-5-yl]-4-propoxy-phenol] was run?
A: > 32 µM

Q: `Cc1cccnc1-c1noc(-c2cc(OCCc3ccccc3)ccc2O)n1` [Compound 273, 2-[3-(3-Methyl-pyridin-2-yl)-[1,2,4]oxadiazol-5-yl]-4-phenethyloxy-phenol] was tested. Which EC50 [2] did it give?
A: > 19 µM
